Laboratory results as given in patent US20040044405A1, “Vascular stent or graft coated or impregnated with protein tyrosine kinase inhibitors and method of using same” (priority 2001, published 2004).

Assays:
[1] = tested on: PKC; settings: cited from earlier work
[2] = tested on: Porcine coronary VSMCs; assay: Porcine coronary VSMC proliferation, BrdU incorporation ELISA after PDGF stimulation; format: cell-based; settings: PDGF 20 ng/mL, STI-571, FIG. 1
Description: BrdU was added to the wells for the last 5 hours of the stimulation period.

[3] = tested on: Porcine aortic vascular endothelial cells; assay: Porcine aortic vascular endothelial cell proliferation, BrdU incorporation ELISA after VEGF stimulation; format: cell-based; settings: VEGF 20 ng/mL for 24 hours, STI-571, FIG. 2
Description: Porcine aortic vascular endothelial cells were grown to subconfluence in 96-well plates with DME media containing 10% FBS at 37° C. for 3 to 5 days. […] BrdU was added to the wells for the last 5 hours of the stimulation period. The cells were subsequently dried for 24 hours at 60° C., fixed and denatured, and BrdU incorporation determined using the Roche ELISA described in Example 1.

[4] = tested on: human coronary artery vascular smooth muscle cells; assay: DNA synthesis in human coronary artery vascular smooth muscle cells, BrdU assay; format: cell-based; settings: 10% FBS for 48 hours, FIG. 4
[5] = tested on: human coronary artery vascular smooth muscle cells; assay: Migration of human coronary artery vascular smooth muscle cells through porous membrane in response to PDGF; format: cell-based; settings: PDGF-ββ 20 ng/ml, 24 hrs, normalized to control membranes, FIG. 5
Description: Migration was assayed by counting cells that migrated through a porous membrane (20 μm diameter pores) in 24 hours in response to stimulation with platelet-derived growth factor (PDGF-pp).
The initial seed density was 4000 cells per filter (0.3 cm^2) in test media with 1% BSA and 20 ng/ml PDGF-ββ. The cells were then incubated in a humidified environment at 37° C., 5% CO2 for 24 hrs. The cells on the top side of the filter were then scraped away. The cells on bottom side of the filters were then fixed with ice-cold methanol for 10 min. The filters were rinsed with PBS and then stained with HarrisAE Hematoxylin stain for 5 min. and again rinsed with PBS.
The cells were then counted manually under high-power magnification (400×) in quadruplicate.

SMILES | inhibitory activity / specificity towards PKC [1] | proliferation of VSMCs (BrdU incorporation) [2] | proliferation of aortic vascular endothelial cells (BrdU incorporation) [3] | DNA synthesis in human coronary artery vascular smooth muscle cells (BrdU incorporation) [4] | migration of human coronary vascular smooth muscle cells [5]
O=C1NC(=O)c2cc(Nc3ccccc3)c(Nc3ccccc3)cc21 [CGP5211] | some inhibitory activity | – | – | – | –
O=C1NC(=O)c2cc(Nc3ccc(F)cc3)c(Nc3ccc(F)cc3)cc21 [CGP53353] | lower specificity towards PKC isozymes | – | – | – | –
Cc1ccc(NC(=O)c2ccc(CN3CCN(C)CC3)cc2)cc1Nc1nccc(-c2cccnc2)n1 [STI-571] | – | inhibited the proliferation of VSMCs in a dose-dependent fashion | very minimal inhibitory effect | inhibits DNA synthesis | inhibits the migration of human coronary vascular smooth muscle cells in a dose-dependent fashion
